# Assay results taken from patent US11419870B2, “Intermittent dosing of MDM2 inhibitor” (Novartis AG, priority 2014, dated 2022).
# Values joined by “and” are separate entries in the source; they are usually repeats but may differ in a detail not shown here. Equal values may be shown once.
# What was measured:
# SJSA-1 tumor [1] = assay: Efficacy on SJSA-1 tumor-bearing nude rat (tumor volume); assay type: in vivo
# Description: Subcutaneous tumors were induced by concentrating 1.0×10^7 SJSA-1 cells in 50% Matrigel® and injecting in the right flank of Harlan nude rats. Efficacy experiment could start 14 days post cell injection. […] The animals were treated either at a high dose (20 mg/kg i.v. or 27 mg/kg p.o.) once every 3 weeks (q3w) or at a high dose (15 mg/kg p.o.) followed 24 h later by a daily low dose treatment (3 mg/kg p.o., 2 weeks on/2 weeks off).
# The tumor volume (TVol) and body-weight (BW) of the animal were measured three times per week allowing calculation at any particular time-point relative to the day of initiation of treatment (day 0) of the percentage change in TVol (Δ% TVol). Tumor response was quantified by the change in tumor volume (endpoint minus starting value in mm^3) as the T/C i.e.
# [formula] In the case of a tumor regression or to assess the percentage of change in TVol, the tumor response was quantified by the percentage of regression of the starting TVol, ie
# SJSA-1 tumor [2] = assay: as above; assay type: in vivo; settings: for tumor regression in average: one week post treatment
# [3] = i.v. q3w 20 mg/kg, three weeks post first treatment
# [4] = i.v. q3w 13.7 mg/kg, week 1 post treatment
# [5] = i.v. q3w 13.7 mg/kg, week 2 post treatment
# [6] = i.v. q3w 18.2 mg/kg, week 1 post treatment
# [7] = i.v. q3w 18.2 mg/kg, week 2 post treatment
# [8] = i.v. q3w 18.2 mg/kg, week 3 post treatment
# [9] = i.v. q3w 18.2 mg/kg, week 5 post treatment
compound,measurement,setting,value
"COc1ncc(-c2nc3c(n2C(C)C)[C@H](c2ccc(Cl)cc2)N(c2cc(Cl)cn(C)c2=O)C3=O)c(OC)n1 [Compound A, (S)-5-(5-Chloro-1-methyl-2-oxo-1,2-dihydro-pyridin-3-yl)-6-(4-chloro-phenyl)-2-(2,4-dimethoxy-pyrimidin-5-yl)-1-isopropyl-5,6-dihydro-1H-pyrrolo[3,4-d]imidazol-4-one]",tumor regression,"SJSA-1 tumor [1]; i.v. q3w 20 mg/kg, after the second treatment",100%
same,rats with partial response (more than 50% regression),SJSA-1 tumor [1]; [3],2
same,tumor regression on average,SJSA-1 tumor [1]; [3],6%
same,SJSA-1 tumor regression,"SJSA-1 tumor [1]; p.o. q3w 27 mg/kg, after two cycles (after the second treatment)",27%
same,tumor cell density,"SJSA-1 tumor [2]; higher single dose, 48 and 72 h post-treatment",dramatic decrease
same,tumor growth,"SJSA-1 tumor [2]; i.v. 13.7 mg/kg, after two weeks",re-growing
same,tumor regression in average,SJSA-1 tumor [2]; i.v. 13.7 mg/kg,66%
same,tumor regression in average,SJSA-1 tumor [2]; i.v. 18.2 mg/kg,88%
same,tumor regression,"SJSA-1 tumor [2]; i.v. 18.2 mg/kg, three weeks post treatment",36%
same,CR,SJSA-1 tumor [2]; [4],1/6
same,ΔTvol (%),SJSA-1 tumor [2]; [4],−66 ± 9%
same,CR,SJSA-1 tumor [2]; [5],0/6
same,ΔTvol (%),SJSA-1 tumor [2]; [5],4 ± 37%
same,CR,SJSA-1 tumor [2]; [6],0/5
same,ΔTvol (%),SJSA-1 tumor [2]; [6],−80 ± 2%
same,CR,SJSA-1 tumor [2]; [7],2/5
same,ΔTvol (%),SJSA-1 tumor [2]; [7],−79 ± 11%
same,CR,SJSA-1 tumor [2]; [8],2 and 2/5
same,ΔTvol (%),SJSA-1 tumor [2]; [8],−36 ± 37%
same,CR,SJSA-1 tumor [2]; [9],2/5
same,ΔTvol (%),SJSA-1 tumor [2]; [9],22 ± 63%
same,CR,"SJSA-1 tumor [2]; i.v. q3w 18.2 mg/kg, week 6 post treatment",2/5
same,ΔTvol (%),"SJSA-1 tumor [2]; i.v. q3w 18.2 mg/kg, week 6 post treatment (after the second treatment)",118% and 118 ± 104%
same,rats with complete response (100% regression),SJSA-1 tumor [2]; [3],3
same,rats with progressive disease,SJSA-1 tumor [2]; [3],1
same,rats with stable disease,SJSA-1 tumor [2]; [3],1
same,effect of combining two dosing schedules,SJSA-1 tumor [2]; intermittent (15 mg/kg once) plus daily dosing (1.5 mg/kg),highly synergistic effect
same,tumor regression,"SJSA-1 tumor [2]; p.o. q3w 20 mg/kg, three weeks post first treatment",27%
same,SJSA-1 tumor regression,"SJSA-1 tumor [2]; p.o. q3w 27 mg/kg, after one cycle (three weeks post first treatment)",88%
same,response of regrown tumors to retreatment,SJSA-1 tumor [2]; retreated i.v. at 15 mg/kg,still sensitive
same,tumors with incomplete response and regrowth,SJSA-1 tumor [2]; single i.v. 20 mg/kg,2 of 11
same,tumor regression,"SJSA-1 tumor [2]; single i.v. 20 mg/kg, 14 days post treatment",92%
same,"complete SJSA-1 tumor response (100% regression), share of treated rat","SJSA-1 tumor [2]; single i.v. 20 mg/kg, for 42 days",82%
